Patent US20210380547A1, “UREA DERIVATIVES FOR TREATING AND/OR PREVENTING CANCER” (CENTRE NATIONAL DE LA RECHERCHE SCIENTIFIQUE, priority 2018, published 2021)

Legend:
RCC4 = assay: XTT cell viability assay, RCC4; type: cell-based; conditions: Homo sapiens, XTT assay (48 h), standard deviation of 10%, read-out: EC50 (μM) Kidney RCC4
Experimental: (§1) Fifty microliters of sodium 3′-[1-phenylaminocarbonyl)-3,4-tetrazolium]-bis(4-methoxy-6-nitro) benzene sulfonic acid hydrate (XTT) reagent was added to each well. The assay is based on the cleavage of the yellow tetrazolium salt XTT to form an orange formazan dye by metabolically active cells. The absorbance of the formazan product, reflecting cell viability, was measured at 490 nm. Each assay was performed in quadruplicate.
(§2) Compounds #1-#14 have been assayed as potential anti-proliferative agents against a panel of human breast head and neck, and kidney tumor cells and hematological malignancies, selected on the basis of their aggressiveness (e.g. incurable triple-negative breast cancer cells: MDA-MB-231; kidney ccRCC cells: RCC4, A498 and 786-O and 786R; head and neck cancer cells: CAL33, CAL33RR, CAL27, and CAL27RR; acute myeloid cell lines: OCI-AML2, OCI-AML3, MolM13, and MolM14; myelodysplastic cell line: SM1; and chronic myeloid cell line: CML). All these cell lines share as common denominator the expression of CXCR1 and CXCR2. The EC50 values have been measured by a XTT colorimetric assay, and compared to those of SB-225002, used as a reference; the results are listed in Table 1.

786-O = assay: XTT cell viability assay, 786-O; type: cell-based, human; conditions: Homo sapiens, 786-0; XTT assay (48 h); standard deviation of 10%; read-out: EC50 (μM) Kidney 786-O
Experimental: (§3) A, B: Naive (786-O, A), and sunitinib-resistant (786-R, B) 786-O cells, were treated with compound #1 or sunitinib (1 to 10 μM) for 48 hr. Cell viability was measured by XTT assays;
(§4) D, E: 786-O (D), 786-R (E), were treated with 2.5 μM compound #1 or 2.5 μM sunitinib for 24 h to 96 h. The cells metabolism was measured by XTT assay;
as §1, §2

[1] = tested on: malignant (ccRCC and hematological) cells; assay: FACS analysis of cell death markers (AV, PI), malignant cells; type: cell-based, human; conditions: 5 μM, 48 h
Experimental: (§5) FIG. 1: Observation by FACS analyses of early (Annexin AV) and late (Propidium Iodide, PI) apoptosis markers expressed by healthy and malignant cells after treatment with compounds #1 and #2 at 5 μM. CT: negative control.
(§6) Apoptosis analysis: After stimulation, cells were washed with ice-cold PBS and were stained with the annexin-V-fluos staining kit (Roche, Meylan, France) according to the manufacturer's procedure. Fluorescence was measured by using the FL2 (AV) and FL3 (propidium iodide, PI) channels of a fluorescence-activated cell sorter apparatus (Calibur cytometer).
(§7) To complete these XTT assays, malignant (ccRCC and hematological) and healthy (human fibroblasts FHN) cells have been grown with compounds #1 or #2, and after 48h the expression of cell death markers (AV and PI) has been quantified by FACS analyses (FIG. 1).

K562 = assay: XTT cell viability assay, K562; type: cell-based, human; conditions: Homo sapiens, K562; XTT assay (48 h); standard deviation of 10%; read-out: EC50 (μM) CML K562
Experimental: as §1, §2

SKM1 = assay: XTT cell viability assay, SKM1; type: cell-based, human; conditions: Homo sapiens, SKM-1; XTT assay (48 h); standard deviation of 10%; read-out: EC50 (μM) MDS SKM1
Experimental: as §1, §2

MDA-MB-231 = assay: XTT cell viability assay, MDA-MB-231; type: cell-based; conditions: Homo sapiens, XTT assay (48 h), standard deviation of 10%, read-out: EC50 (μM) Breast MDA-MB-231
Experimental: as §1, §2

MolM13 = assay: XTT cell viability assay, MolM13; type: cell-based, human; conditions: Homo sapiens, MOLM-13; XTT assay (48 h); standard deviation of 10%; read-out: EC50 (μM) AML MolM13
Experimental: as §1, §2

A498 = assay: XTT cell viability assay, A498; type: cell-based, human; conditions: Homo sapiens, A498; XTT assay (48 h); standard deviation of 10%; read-out: EC50 (μM) Kidney A498
Experimental: as §1, §2

MolM14 = assay: XTT cell viability assay, MolM14; type: cell-based, human; conditions: Homo sapiens, MOLM-14; XTT assay (48 h); standard deviation of 10%; read-out: EC50 (μM) AML MolM14
Experimental: as §1, §2

OCI-AML2 = assay: XTT cell viability assay, OCI-AML2; type: cell-based, human; conditions: Homo sapiens, OCI-AML2; XTT assay (48 h); standard deviation of 10%; read-out: EC50 (μM) AML OCI-AML2
Experimental: as §1, §2

OCI-AML3 = assay: XTT cell viability assay, OCI-AML3; type: cell-based, human; conditions: Homo sapiens, OCI-AML-3; XTT assay (48 h); standard deviation of 10%
Experimental: as §1, §2

786R = assay: XTT cell viability assay, 786R (sunitinib-resistant); type: cell-based, human; conditions: Homo sapiens, 48 h, XTT assay (48 h); sunitinib-resistant; standard deviation of 10%; read-out: EC50 (μM) Kidney 786R
Experimental: as §3, §4, §1, §2

[2] = tested on: healthy human fibroblasts (FHN); assay: FACS analysis of cell death markers (AV, PI), healthy fibroblasts; type: cell-based; conditions: 5 μM, 48 h
Experimental: as §5, §6, §7

[3] = tested on: macular degeneration model; assay: Macular degeneration model, clinical angiography; type: in vivo, mice; conditions: Day 14, intraperitoneal 400 μg 3 times a week
Experimental: FIG. 9: Evaluation of compounds #1 and #3 on macular degeneration. Clinical angiography at Day 14: Evaluation of the intensity of the lesion by a score from 0 to 3 (0: no leak; 1: light intensity; 2: moderate intensity; 3: immense marking) on mice treated with compounds #1 and #3. The intensities of the lesions were reported, each point corresponding to a lesion. Three lesions were performed on the eyes of each mouse; […]. • 4 groups of 12 mice were induced on the eyes by laser burnt as follows: • G1: vehicle; • G2 and G3: Compounds #1 and #3: intraperitoneal injection of 400 μg of product 3 times a week; and • G4: dexamethasone (2 mg/kg/day) orally. Clinical angiography at Day 14 on the 12 animals: evaluation of the intensity of the lesion by a score of 0 to 3 (0 no leak, 1=light intensity, 2=moderate intensity, 3=intense marking).

[4] = tested on: CXCL7-dependent HuVEC migration; assay: Boyden chamber migration assay, CXCL7-dependent; type: cell-based; conditions: CXCL7 (50 ng/ml)
Experimental: CXCL7 or VEGFA-stimulated chemotaxis assays were monitored using modified Boyden chambers containing polycarbonate membranes (8-μm pores, Transwell; Corning, Sigma). Cells were seeded on the upper side of the filters and chambers were placed on 24-well plates containing CXCL7 (50 ng/ml) or VEGFA (50 ng/ml). Cells were allowed to migrate for 24 hr at 37° C. in 5% CO2. Migratory cells on the lower membrane surface were fixed in 3% paraformaldehyde, stained with 0.1% crystal violet.

SMILES | EC50 (RCC4) [µM] | EC50 (786-O) [µM] | early (AV) and late (PI) apoptosis markers on malignant cells [1] | EC50 (K562) [µM] | EC50 (SKM1) [µM] | EC50 (MDA-MB-231) [µM] | EC50 (MolM13) [µM] | EC50 (A498) [µM] | EC50 (MolM14) [µM] | EC50 (OCI-AML2) [µM] | EC50 (OCI-AML3) [µM] | EC50 (786R) [µM] | apoptosis of healthy human fibroblasts (FHN) [2] | intensity of the lesion (score 0 to 3), clinical angiography [3] | reduction of HuVEC CXCL7-dependent motility (comparison) [4]
O=C(Nc1nc2ccc([N+](=O)[O-])cc2s1)Nc1ccccc1Cl [Compound #2, 1-(2-chlorophenyl)-3-(6-nitrobenzo[d]thiazol-2-yl)urea] | 7 | 5 | cytotoxic effect on malignant cells | 7 | 10 | 8 | 5 | 5 | 10 | 10 | 10 | 8 | no increased apoptosis over the control experiment | – | –
CCOc1ccc2nc(NC(=O)Nc3ccccc3C)sc2c1 [Compound #3, 1-(6-ethoxybenzo[d]thiazol-2-yl)-3-(o-tolyl)urea] | > 25 | 15 | – | 4 | 15 | 12 | 15 | 15 | 10 | 15 | 7 | – | – | significant effect | –
Cc1c(F)cccc1NC(=O)Nc1ccc(Cl)c(S(=O)(=O)[C@H]2CCCNC2)c1O [danirixin, reference compound] | – | – | – | – | – | – | – | – | – | – | – | – | – | – | less efficient than compound #1
